Earlier results, collected in article PMC9516332 (Frontiers in Oncology, 2022).
Read-outs that look alike come from different tables or passages of the source.

Key:
[1] = target: panel of 255 wild-type kinases (Homo sapiens, UniProt Q9UKE5); settings: kinase TNIK, 1 µmol/L single concentration, cited from earlier work
[2] = target: panel of 255 wild-type kinases (Homo sapiens, UniProt P06213); settings: kinase INSR, 1 µmol/L single concentration, cited from earlier work
[3] = target: panel of 255 wild-type kinases (Homo sapiens, UniProt P24723); settings: cited from earlier work
[4] = target: panel of 255 wild-type kinases (Homo sapiens, UniProt Q8TDX7); settings: NEK7, 1 µmol/L single concentration, cited from earlier work
[5] = target: panel of 255 wild-type kinases (Homo sapiens, UniProt Q9NYA1); settings: kinase SPHK1, 1 µmol/L single concentration, cited from earlier work
[6] = target: T1, panel of 255 wild-type kinases (Homo sapiens, UniProt O00141); settings: kinase SGK, 1 µmol/L single concentration, cited from earlier work
T1 sequence (O00141 1-431): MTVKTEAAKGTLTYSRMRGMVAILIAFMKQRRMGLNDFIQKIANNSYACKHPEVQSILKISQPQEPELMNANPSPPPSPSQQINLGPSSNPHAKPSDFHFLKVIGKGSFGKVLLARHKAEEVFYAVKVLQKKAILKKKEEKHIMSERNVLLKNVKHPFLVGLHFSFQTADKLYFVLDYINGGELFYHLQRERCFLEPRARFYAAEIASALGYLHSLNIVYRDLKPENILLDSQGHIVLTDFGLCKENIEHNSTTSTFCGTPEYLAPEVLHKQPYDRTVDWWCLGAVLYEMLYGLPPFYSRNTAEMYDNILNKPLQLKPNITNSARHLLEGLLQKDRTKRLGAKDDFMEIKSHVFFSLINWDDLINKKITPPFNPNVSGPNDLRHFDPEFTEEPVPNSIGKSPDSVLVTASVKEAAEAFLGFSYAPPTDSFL

[7] = target: panel of 255 wild-type kinases (Homo sapiens, UniProt P09769); settings: kinase FGR, 1 µmol/L single concentration, cited from earlier work
[8] = target: T2, panel of 255 wild-type kinases (Homo sapiens, UniProt Q16832); settings: kinase DDR2, 1 µmol/L single concentration, cited from earlier work
T2 sequence (Q16832 22-855): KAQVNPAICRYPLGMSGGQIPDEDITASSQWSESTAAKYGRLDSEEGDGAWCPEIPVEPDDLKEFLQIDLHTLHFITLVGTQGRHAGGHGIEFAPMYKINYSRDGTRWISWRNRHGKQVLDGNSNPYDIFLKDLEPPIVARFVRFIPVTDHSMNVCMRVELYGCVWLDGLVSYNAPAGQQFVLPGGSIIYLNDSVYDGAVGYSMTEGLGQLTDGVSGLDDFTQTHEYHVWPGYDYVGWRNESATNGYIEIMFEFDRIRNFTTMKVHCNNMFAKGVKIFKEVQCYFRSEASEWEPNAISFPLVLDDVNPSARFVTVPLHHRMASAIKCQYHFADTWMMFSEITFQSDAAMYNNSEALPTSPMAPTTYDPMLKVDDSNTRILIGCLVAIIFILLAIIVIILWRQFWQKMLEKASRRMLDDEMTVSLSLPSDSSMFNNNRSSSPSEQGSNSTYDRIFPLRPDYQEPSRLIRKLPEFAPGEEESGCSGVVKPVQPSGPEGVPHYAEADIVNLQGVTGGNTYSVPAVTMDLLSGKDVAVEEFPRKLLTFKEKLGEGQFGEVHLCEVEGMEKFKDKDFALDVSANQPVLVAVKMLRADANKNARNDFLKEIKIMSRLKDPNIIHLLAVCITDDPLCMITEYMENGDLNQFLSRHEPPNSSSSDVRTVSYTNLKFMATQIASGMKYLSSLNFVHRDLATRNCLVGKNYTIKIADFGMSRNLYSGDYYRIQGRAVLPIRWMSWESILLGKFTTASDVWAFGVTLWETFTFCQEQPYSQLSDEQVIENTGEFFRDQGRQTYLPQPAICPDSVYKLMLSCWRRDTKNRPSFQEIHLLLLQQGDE

[9] = target: panel of 255 wild-type kinases (Homo sapiens, UniProt P07333); settings: kinase FMS, 1 µmol/L single concentration, cited from earlier work
[10] = target: panel of 255 wild-type kinases (Homo sapiens, UniProt P42684); settings: ARG kinase assay, 1 µmol/L single concentration, cited from earlier work
[11] = target: panel of 255 wild-type kinases (Homo sapiens, UniProt Q86Z02); settings: kinase HIPK1, 1 µmol/L single concentration, cited from earlier work
[12] = target: T3, panel of 255 wild-type kinases (Homo sapiens, UniProt Q9BXA7); settings: kinase TSSK1, 1 µmol/L single concentration, cited from earlier work
T3 sequence (Q9BXA7 1-367): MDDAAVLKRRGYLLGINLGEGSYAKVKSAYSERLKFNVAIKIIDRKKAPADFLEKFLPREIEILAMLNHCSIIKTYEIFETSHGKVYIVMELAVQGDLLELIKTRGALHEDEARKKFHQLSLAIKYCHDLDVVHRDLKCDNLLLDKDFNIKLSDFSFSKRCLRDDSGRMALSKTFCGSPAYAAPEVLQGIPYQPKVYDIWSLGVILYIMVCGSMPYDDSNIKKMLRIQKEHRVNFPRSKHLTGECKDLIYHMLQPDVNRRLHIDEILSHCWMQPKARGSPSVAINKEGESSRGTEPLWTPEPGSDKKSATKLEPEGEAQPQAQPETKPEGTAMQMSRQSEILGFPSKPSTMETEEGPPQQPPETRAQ

[13] = ref DOI: 10.1371/journal.pone.0092146
[14] = kinase PKCη, 1 µmol/L single concentration, ref DOI: 10.1371/journal.pone.0092146
[15] = ref DOI: 10.1158/1535-7163.MCT-18-0877
[16] = kinase PKCη, 1 µmol/L single concentration, ref DOI: 10.1158/1535-7163.MCT-18-0877

Compound	%-inhibition at 1 µmol/L, TNIK [1, 13] [%]	%-inhibition at 1 µmol/L, INSR [2, 13] [%]	%-inhibition at 1 µmol/L, PKCη [3, 14] [%]	%-inhibition, NEK7 [4, 13] [%]	%-inhibition at 1 µmol/L, SPHK1 [5, 13] [%]	%-inhibition at 1 µmol/L, SGK [6, 13] [%]	%-inhibition at 1 µmol/L, FGR [7, 13] [%]	%-inhibition at 1 µmol/L, DDR2 [8, 13] [%]	%-inhibition at 1 µmol/L, FMS [9, 13] [%]	%-inhibition ARG [10, 13] [%]	%-inhibition at 1 µmol/L, HIPK1 [11, 13] [%]	%-inhibition at 1 µmol/L, TSSK1 [12, 13] [%]	%-inhibition at 1 µmol/L, TNIK [1, 15] [%]	%-inhibition at 1 µmol/L, INSR [2, 15] [%]	%-inhibition, NEK7 [4, 15] [%]	%-inhibition at 1 µmol/L, SPHK1 [5, 15] [%]	%-inhibition at 1 µmol/L, SGK [6, 15] [%]	%-inhibition at 1 µmol/L, FGR [7, 15] [%]	%-inhibition at 1 µmol/L, DDR2 [8, 15] [%]	%-inhibition at 1 µmol/L, FMS [9, 15] [%]	also measured
CC(C)(C)c1nc(-c2cccc(NS(=O)(=O)c3c(F)cccc3F)c2F)c(-c2ccnc(N)n2)s1 [dabrafenib]	15	7.51	9	2.28	-18	4	82	100	15	54	70	8	–	–	–	–	–	–	–	–	–
C=CC(=O)N1CCC[C@@H](n2nc(-c3ccc(Oc4ccccc4)cc3)c3c(N)ncnc32)C1 [ibrutinib]	–	–	–	–	–	–	–	–	–	–	–	–	-1.62	9.51	0.69	-3.38	-21	99	17	19	%-inhibition at 1 µmol/L, PKCη [3, 16]: 3.27%; %-inhibition ARG [10, 15]: 7%; %-inhibition at 1 µmol/L, HIPK1 [11, 15]: 4.26%; %-inhibition at 1 µmol/L, TSSK1 [12, 15]: 9%
CO[C@@H]1[C@H](N(C)C(=O)c2ccccc2)C[C@H]2O[C@]1(C)n1c3ccccc3c3c4c(c5c6ccccc6n2c5c31)C(=O)NC4 [midostaurin]	–	–	–	–	–	–	–	–	–	–	–	–	94	35	-11	-2.46	31	93	97	95	%-inhibition at 1 µmol/L, PKCη [3]: 84%; %-inhibition ARG [10, 15]: 25%; %-inhibition at 1 µmol/L, HIPK1 [11, 15]: 12%; %-inhibition at 1 µmol/L, TSSK1 [12, 15]: 95%
C=CC(=O)Nc1cc(Nc2nccc(-c3cn(C)c4ccccc34)n2)c(OC)cc1N(C)CCN(C)C [osimertinib]	–	–	–	–	–	–	–	–	–	–	–	–	84	86	0.703	9	-11	5.61	25	47	%-inhibition at 1 µmol/L, PKCη [3, 16]: 0.117%; %-inhibition ARG [10, 15]: 5.35%; %-inhibition at 1 µmol/L, HIPK1 [11, 15]: 34%; %-inhibition at 1 µmol/L, TSSK1 [12, 15]: 76%
CC(=O)Nc1cccc(-n2c(=O)n(C3CC3)c(=O)c3c(Nc4ccc(I)cc4F)n(C)c(=O)c(C)c32)c1 [trametinib]	3	-30	-8	1.63	-11	0.217	-9	0.612	-4	-4	-3.71	-5	–	–	–	–	–	–	–	–	–
CCCS(=O)(=O)Nc1ccc(F)c(C(=O)c2c[nH]c3ncc(-c4ccc(Cl)cc4)cc23)c1F [vemurafenib]	33	17	-22	-3.56	-11	-0.122	93	69	6	7	-4.72	-4	–	–	–	–	–	–	–	–	–
